We go through one molecule from publication PMC3269340, “Pharmacokinetics of memantine in rats and mice” (PLoS Currents, 2012).

Type in all cases: in vitro ADME
The target in data set [1] is T1, human PEPT2 (Homo sapiens, UniProt Q16348).
T1 construct: expressed in transfected cells; host or cells: CHO cells
T1 sequence (Q16348 1-729): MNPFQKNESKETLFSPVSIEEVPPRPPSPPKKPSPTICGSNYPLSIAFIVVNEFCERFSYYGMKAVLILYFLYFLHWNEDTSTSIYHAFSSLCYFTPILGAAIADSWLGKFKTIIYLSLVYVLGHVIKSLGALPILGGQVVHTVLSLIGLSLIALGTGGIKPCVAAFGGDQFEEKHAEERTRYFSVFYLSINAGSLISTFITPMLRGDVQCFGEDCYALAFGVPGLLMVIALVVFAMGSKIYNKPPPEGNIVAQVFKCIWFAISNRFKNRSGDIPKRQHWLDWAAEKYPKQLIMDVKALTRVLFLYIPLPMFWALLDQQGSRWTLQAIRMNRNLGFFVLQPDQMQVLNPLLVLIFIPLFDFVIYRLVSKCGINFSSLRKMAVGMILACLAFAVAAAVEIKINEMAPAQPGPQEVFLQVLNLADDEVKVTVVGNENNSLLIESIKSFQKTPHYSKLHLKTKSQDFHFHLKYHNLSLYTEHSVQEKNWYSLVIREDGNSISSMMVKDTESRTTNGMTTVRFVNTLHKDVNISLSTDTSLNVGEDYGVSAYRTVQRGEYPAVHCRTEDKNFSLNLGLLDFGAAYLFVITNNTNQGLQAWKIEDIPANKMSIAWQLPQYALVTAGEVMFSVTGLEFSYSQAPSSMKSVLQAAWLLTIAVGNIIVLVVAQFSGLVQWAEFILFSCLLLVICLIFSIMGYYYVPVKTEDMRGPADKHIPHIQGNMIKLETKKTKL
Nature of the data set: Indirect uptake transporter assay, PEPT2. The text has this: To determine whether memantine is an inhibitor of the human OATP2B1 (OATP-B), OCT1, OCT2, OAT3, PEPT1, PEPT2 uptake transporters. The standard uptake transporter assay is an indirect, inhibitory-type screening assay, performed with cold test article, which in this case was memantine. It provides information on any interaction (substrate or inhibitor) between selected uptake transporters and memantine that would affect the transport of the reporter compound. […] A radiolabeled reporter substrate is transported into the cells transfected with the selected human uptake transporter, and the inhibitory effect of memantine on the transport of this reporter substrate is measured. Values are presented on a relative scale; 100% defined as transport in the presence of the solvent and without memantine (no inhibition), and 0% defined as transport detected without transporter activity. IC50 is defined as the concentration required to inhibit the transport of the reporter substrate by 50%. […]
(§1) After the experiment cells were rinsed with 2 x 100µl of Krebs-Henseleit buffer and lysed with 50 µl of 0.1M NaOH. ^3H-estrone-3-sulfate, ^14C-TEA, ^14C-metformin and ^3H-Gly-Sar transport was determined by total radioactivity by transferring an aliquot (35µl) from each well to a vial containing liquid scintillant for analysis.

Data set [2] concerns the target T2, human PEPT1 (Homo sapiens, UniProt P46059).
T2 sequence (P46059 1-708): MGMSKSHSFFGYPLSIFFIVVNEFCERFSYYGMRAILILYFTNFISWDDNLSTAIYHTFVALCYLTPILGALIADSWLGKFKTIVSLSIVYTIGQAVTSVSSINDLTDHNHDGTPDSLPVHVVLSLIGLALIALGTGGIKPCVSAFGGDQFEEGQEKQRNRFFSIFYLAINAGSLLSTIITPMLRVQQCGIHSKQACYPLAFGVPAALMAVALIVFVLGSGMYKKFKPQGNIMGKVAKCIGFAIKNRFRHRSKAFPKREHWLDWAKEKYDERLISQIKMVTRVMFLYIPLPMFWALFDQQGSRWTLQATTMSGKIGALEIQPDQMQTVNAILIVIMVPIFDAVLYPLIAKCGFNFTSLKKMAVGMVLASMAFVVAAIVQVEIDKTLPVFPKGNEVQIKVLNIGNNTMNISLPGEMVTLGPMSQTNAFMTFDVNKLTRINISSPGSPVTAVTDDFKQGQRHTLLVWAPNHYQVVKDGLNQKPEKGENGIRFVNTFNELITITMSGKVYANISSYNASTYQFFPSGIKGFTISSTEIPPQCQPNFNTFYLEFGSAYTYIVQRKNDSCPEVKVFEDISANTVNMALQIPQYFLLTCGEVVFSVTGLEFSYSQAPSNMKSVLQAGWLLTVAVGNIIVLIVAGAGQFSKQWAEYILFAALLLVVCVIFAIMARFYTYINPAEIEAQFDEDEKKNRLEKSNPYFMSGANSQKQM
Nature of the data set: Indirect uptake transporter assay, PEPT1.
Excerpt: To determine whether memantine is an inhibitor of the human OATP2B1 (OATP-B), OCT1, OCT2, OAT3, PEPT1, PEPT2 uptake transporters. The standard uptake transporter assay is an indirect, inhibitory-type screening assay, performed with cold test article, which in this case was memantine. It provides information on any interaction (substrate or inhibitor) between selected uptake transporters and memantine that would affect the transport of the reporter compound. […] A radiolabeled reporter substrate is transported into the cells transfected with the selected human uptake transporter, and the inhibitory effect of memantine on the transport of this reporter substrate is measured. Values are presented on a relative scale; 100% defined as transport in the presence of the solvent and without memantine (no inhibition), and 0% defined as transport detected without transporter activity. IC50 is defined as the concentration required to inhibit the transport of the reporter substrate by 50%.
The uptake transporter assay was carried out under the conditions described in the table below, with either CHO cells or MDCKII cells stably expressing the respective uptake transporter.
Duplicate incubations of memantine (0 or DMSO control, 0.41, 1.2, 3.7, 11, 33, 100 and 300 µM) were conducted per concentration on transfected and in parental cells. A reference inhibitor (positive control, duplicate) was incubated in transfected cells.
CHO cells were cultured in a 1:1 mixture of Dubelcco’s Modified Eagle’s Medium (DMEM, Lonza, Allendale, NJ) and Ham's F-12 (F-12, Lonza, Allendale, NJ) and MDCKII cells in DMEM at 37°C in an atmosphere of 95:5 air:CO2. […]
as §1

The nature of data set [3]: Metabolite identification in rat liver microsomes. Conditions: 10 µM, 1 mg/mL rat liver microsomal protein, 60 min. The method, then: Metabolites of memantine were characterized following incubation in pooled rat liver microsomes. Incubation conditions were as described above (Section 4.1), except that for metabolite identification the memantine concentration was 10 µM, 1 mg/mL of liver microsomal protein was used, and the metabolites were identified following a 60 min incubation period. Control incubations (T=0 min) were used as reference, and testosterone incubations were used as a positive control.
Full scan mass spectra were acquired by TOF-MS as accurate mass. The instruments were controlled and data acquired by Waters MassLynx™ version 4.1 (SCN 714) software. The TOF-MS spectra were interrogated and metabolite reports generated by Waters MetaboLynx™ XS software.
In general terms: Liver microsomes are a subcellular fraction often used to study metabolism.

By IC50 is commonly meant the concentration at which inhibition is half-maximal. The low end stands for greater potency, the high end for weaker potency. As a reminder, the inhibition is the drop in the measured response relative to a control, in per cent.

`CC12CC3CC(C)(C1)CC(N)(C3)C2` [memantine]: the “IC50” value is “ND (Not Determined (< 50% inhibition))” in data set [1] (PEPT2, probe printed in Table 5: E3S (0.3µM), methods and text: Gly-Sar); 280 µM in data set [2] (PEPT1-mediated glycylsarcosine transport); 281 µM in data set [2] (PEPT1, probe printed in Table 5: E3S (1 μM), methods and text: Gly-Sar). Also, the inhibition at 300 µM in data set [1] (at 300 µM, read-out: inhibition of PEPT2-mediated glycylsarcosine transport) stood at 22%. For the same molecule, in data set [2] (PEPT1, up to 300 µM), the “Maximal Inhibition” value is recorded as ~62%. Besides, the “most abundant metabolite (based on uv signal response)” value in data set [3] is reported as “product of a single aliphatic hydroxylation”.
